Tests used:
GR = target: T1, GR (Homo sapiens, UniProt P04150); experiment: In Vitro GR Luciferase Reporter Assay (antagonist mode, CHO-K1-GR-MMTV-Luc reporter cells); assay type: cell-based; details: antagonist mode, 10 nM Dexamethasone
T1 construct: expressed in transfected cells; host or cells: CHO-K1
T1 sequence (P04150 1-777): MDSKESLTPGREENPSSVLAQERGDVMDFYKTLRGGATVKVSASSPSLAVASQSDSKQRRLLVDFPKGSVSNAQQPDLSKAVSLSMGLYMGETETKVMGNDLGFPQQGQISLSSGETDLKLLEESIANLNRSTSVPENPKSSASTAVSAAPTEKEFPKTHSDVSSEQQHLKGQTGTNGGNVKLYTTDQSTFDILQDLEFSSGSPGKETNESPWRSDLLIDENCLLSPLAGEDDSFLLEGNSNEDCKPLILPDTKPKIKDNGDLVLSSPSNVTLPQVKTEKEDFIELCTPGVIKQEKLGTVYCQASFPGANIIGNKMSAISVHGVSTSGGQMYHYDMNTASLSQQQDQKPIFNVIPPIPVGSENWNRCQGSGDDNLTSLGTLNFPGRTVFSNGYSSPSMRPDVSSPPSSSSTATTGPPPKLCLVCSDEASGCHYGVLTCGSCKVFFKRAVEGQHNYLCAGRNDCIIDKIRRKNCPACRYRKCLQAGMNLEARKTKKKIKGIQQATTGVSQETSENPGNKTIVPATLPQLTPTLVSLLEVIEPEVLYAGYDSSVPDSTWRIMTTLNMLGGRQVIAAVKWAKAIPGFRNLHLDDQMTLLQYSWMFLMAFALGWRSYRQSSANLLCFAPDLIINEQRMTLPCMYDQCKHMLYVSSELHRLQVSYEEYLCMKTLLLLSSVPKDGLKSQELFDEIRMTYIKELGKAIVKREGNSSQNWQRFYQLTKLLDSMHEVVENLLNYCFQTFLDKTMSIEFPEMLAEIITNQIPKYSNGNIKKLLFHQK
Outline: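 Antagonist mode: compounds (8 serial 1:5 dilutions) added to GR-MMTV-luciferase CHO-K1 reporter cells co-exposed to 10 nM dexamethasone final, in phenol red-free DMEM plus 10% CSS. After roughly 18-24 h at 37° C, OneGlo luminescence read and IC50 calculated.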

CYP2C8 = target: T2, CYP2C8 (Homo sapiens, UniProt P10632); experiment: CYP Inhibition Assay (CYP2C8, human liver microsomes, paclitaxel substrate); assay type: in vitro ADME; details: pH 7.4; pooled human liver microsomes 0.1 mg/mL, probe substrate paclitaxel
T2 construct: Pooled human microsomes were obtained from Sekisui XenoTech, KS; tissue Sekisui XenoTech, KS; host or cells: pooled human liver microsomes
T2 sequence (P10632 1-490): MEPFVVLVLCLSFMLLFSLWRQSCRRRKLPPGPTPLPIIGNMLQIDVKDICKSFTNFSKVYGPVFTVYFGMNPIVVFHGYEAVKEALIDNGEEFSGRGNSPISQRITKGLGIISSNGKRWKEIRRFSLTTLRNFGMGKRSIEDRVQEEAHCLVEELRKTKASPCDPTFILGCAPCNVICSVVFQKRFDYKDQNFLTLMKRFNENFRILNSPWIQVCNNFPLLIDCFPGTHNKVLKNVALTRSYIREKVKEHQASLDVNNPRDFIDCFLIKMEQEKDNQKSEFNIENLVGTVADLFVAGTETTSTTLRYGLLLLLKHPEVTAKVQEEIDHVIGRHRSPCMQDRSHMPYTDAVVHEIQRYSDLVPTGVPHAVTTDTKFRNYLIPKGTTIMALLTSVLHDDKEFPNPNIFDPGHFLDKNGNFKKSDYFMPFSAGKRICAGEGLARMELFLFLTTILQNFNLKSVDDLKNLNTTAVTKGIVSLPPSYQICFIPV
Outline: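 CYP2C8 activity read as 6α-hydroxypaclitaxel formation by LC-MS/MS, with % inhibition versus vehicle control. Reactions ran 5 min at 37° C, pH 7.4 phosphate buffer, 0.1 mg/mL pooled human liver microsomes, 1 mM NADPH, duplicate wells.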

Question: Which IC50 (GR) does the source give for Cn1ccc(S(=O)(=O)N(CC2CC2)[C@H]2CCC3=Cc4c(cnn4-c4ccc(F)cc4)C[C@]3(C(=O)c3cc(C(F)F)ccn3)C2)n1 [Example 298, N-(cyclopropylmethyl)-N-((4aS,6S)-4a-(4-(difluoromethyl)picolinoyl)-1-(4-fluorophenyl)-4,4a,5,6,7,8-hexahydro-1H-benzo[f]indazol-6-yl)-1-methyl-1H-pyrazole-3-sulfonamide] here?
Answer: ≤ 100 nM

Question: And the inhibition at 5 min (CYP2C8)?
Answer: 50 to 75%

Question: What does the source list for CC(C)N([C@H]1CCC2=Cc3c(cnn3-c3ccc(F)cc3)C[C@]2(C(=O)c2ncc(C(F)(F)F)s2)C1)S(=O)(=O)c1cn(C)cn1 [Example 299, N-((4aS,6S)-1-(4-fluorophenyl)-4a-(5-(trifluoromethyl)thiazole-2-carbonyl)-4,4a,5,6,7,8-hexahydro-1H-benzo[f]indazol-6-yl)-N-isopropyl-1-methyl-1H-imidazole-4-sulfonamide]?
Answer: IC50 (GR): ≤ 100 nM; inhibition at 5 min (CYP2C8): ≤ 25%

Question: With Cn1ncc(S(=O)(=O)N(CC(F)(F)F)[C@H]2CCC3=Cc4c(cnn4-c4ccc(F)cc4)C[C@]3(C(=O)c3ncc(C(F)(F)F)s3)C2)n1 [Example 300, N-((4aS,6S)-1-(4-fluorophenyl)-4a-(5-(trifluoromethyl)thiazole-2-carbonyl)-4,4a,5,6,7,8-hexahydro-1H-benzo[f]indazol-6-yl)-2-methyl-N-(2,2,2-trifluoroethyl)-2H-1,2,3-triazole-4-sulfonamide] as the compound, how does the IC50 (GR) read?
Answer: ≤ 100 nM

Question: And the inhibition at 5 min (CYP2C8)?
Answer: 50 to 75%

Question: Which IC50 (GR) does the source give for Cc1ncc(S(=O)(=O)N(C2CC2)[C@H]2CCC3=Cc4c(cnn4-c4ccc(F)cc4)C[C@]3(C(=O)c3cc(C(F)(F)F)ccn3)C2)n1C [Example 307, N-cyclopropyl-N-((4aS,6S)-1-(4-fluorophenyl)-4a-(4-(trifluoromethyl)picolinoyl)-4,4a,5,6,7,8-hexahydro-1H-benzo[f]indazol-6-yl)-1,2-dimethyl-1H-imidazole-5-sulfonamide] here?
Answer: ≤ 100 nM

Question: What about the inhibition at 5 min (CYP2C8) of the same compound?
Answer: 25 to 50%

Question: Which results are given for CCn1ccc(S(=O)(=O)[C@H]2CCC3=Cc4c(cnn4-c4ccc(F)cc4)C[C@]3(C(=O)c3ccc(C(F)(F)F)cn3)C2)n1 [Example 308, ((4aS,6S)-6-((1-ethyl-1H-pyrazol-3-yl)sulfonyl)-1-(4-fluorophenyl)-1,4,5,6,7,8-hexahydro-4aH-benzo[f]indazol-4a-yl)(5-(trifluoromethyl)pyridin-2-yl)methanone]?
Answer: IC50 (GR): ≤ 100 nM; inhibition at 5 min (CYP2C8): 25 to 50%

Question: Which results are given for O=C(c1ccc(C(F)(F)F)cn1)[C@]12Cc3cnn(-c4ccc(F)cc4)c3C=C1CC[C@H](S(=O)(=O)c1ccn(C3CC3)n1)C2 [Example 309, ((4aS,6S)-6-((1-cyclopropyl-1H-pyrazol-3-yl)sulfonyl)-1-(4-fluorophenyl)-1,4,5,6,7,8-hexahydro-4aH-benzo[f]indazol-4a-yl)(5-(trifluoromethyl)pyridin-2-yl)methanone]?
Answer: IC50 (GR): ≤ 100 nM; inhibition at 5 min (CYP2C8): ≤ 25%

Question: For CC(C)n1ccc(S(=O)(=O)[C@H]2CCC3=Cc4c(cnn4-c4ccc(F)cc4)C[C@]3(C(=O)c3ccc(C(F)(F)F)cn3)C2)n1 [Example 310, ((4aS,6S)-1-(4-fluorophenyl)-6-((1-isopropyl-1H-pyrazol-3-yl)sulfonyl)-1,4,5,6,7,8-hexahydro-4aH-benzo[f]indazol-4a-yl)(5-(trifluoromethyl)pyridin-2-yl)methanone], which IC50 (GR) is on record?
Answer: ≤ 100 nM

Question: What about the inhibition at 5 min (CYP2C8) of the same compound?
Answer: 25 to 50%

Question: For Cn1cc(S(=O)(=O)N(CC(F)F)[C@H]2CCC3=Cc4c(cnn4-c4ccc(F)cc4)C[C@]3(C(=O)c3cc(C(F)(F)F)ccn3)C2)nn1 [Example 311, N-(2,2-difluoroethyl)-N-((4aS,6S)-1-(4-fluorophenyl)-4a-(4-(trifluoromethyl)picolinoyl)-4,4a,5,6,7,8-hexahydro-1H-benzo[f]indazol-6-yl)-1-methyl-1H-1,2,3-triazole-4-sulfonamide], which IC50 (GR) is on record?
Answer: ≤ 100 nM

Question: What about the inhibition at 5 min (CYP2C8) of the same compound?
Answer: ≤ 25%

Question: With O=C(c1ncc(C(F)(F)F)s1)[C@]12Cc3cnn(-c4ccc(F)cc4)c3C=C1CC[C@H](N(CC(F)(F)F)S(=O)(=O)c1ccc(Cl)nc1)C2 [Example 312, 6-chloro-N-((4aS,6S)-1-(4-fluorophenyl)-4a-(5-(trifluoromethyl)thiazole-2-carbonyl)-4,4a,5,6,7,8-hexahydro-1H-benzo[f]indazol-6-yl)-N-(2,2,2-trifluoroethyl)pyridine-3-sulfonamide] as the compound, how does the IC50 (GR) read?
Answer: ≤ 100 nM

Question: What about the inhibition at 5 min (CYP2C8) of the same compound?
Answer: 25 to 50%

Question: What does the source list for Cn1ccc(S(=O)(=O)N(CC(F)F)[C@H]2CCC3=Cc4c(cnn4-c4ccc(F)cc4)C[C@]3(C(=O)c3cc(C(F)(F)F)ccn3)C2)n1 [Example 313, N-(2,2-difluoroethyl)-N-((4aS,6S)-1-(4-fluorophenyl)-4a-(4-(trifluoromethyl)picolinoyl)-4,4a,5,6,7,8-hexahydro-1H-benzo[f]indazol-6-yl)-1-methyl-1H-pyrazole-3-sulfonamide]?
Answer: IC50 (GR): ≤ 100 nM; inhibition at 5 min (CYP2C8): 25 to 50%

Question: With Cn1cnc(S(=O)(=O)N(CC2CC2)[C@H]2CCC3=Cc4c(cnn4-c4ccc(F)cc4)C[C@]3(C(=O)c3ncc(C(F)(F)F)s3)C2)n1 [Example 315, N-(cyclopropylmethyl)-N-((4aS,6S)-1-(4-fluorophenyl)-4a-(5-(trifluoromethyl)thiazole-2-carbonyl)-4,4a,5,6,7,8-hexahydro-1H-benzo[f]indazol-6-yl)-1-methyl-1H-1,2,4-triazole-3-sulfonamide] as the compound, how does the IC50 (GR) read?
Answer: ≤ 100 nM

Question: What about the inhibition at 5 min (CYP2C8) of the same compound?
Answer: 25 to 50%

Question: With O=C(c1cc(F)ccn1)[C@]12Cc3cnn(-c4ccc(F)cc4)c3C=C1CC[C@H](N(CC1CC1)S(=O)(=O)c1ccc(Cl)nc1)C2 [Example 319, 6-chloro-N-(cyclopropylmethyl)-N-((4aS,6S)-1-(4-fluorophenyl)-4a-(4-fluoropicolinoyl)-4,4a,5,6,7,8-hexahydro-1H-benzo[f]indazol-6-yl)pyridine-3-sulfonamide] as the compound, how does the IC50 (GR) read?
Answer: ≤ 100 nM

Question: What about the inhibition at 5 min (CYP2C8) of the same compound?
Answer: 50 to 75%

Question: Which IC50 (GR) does the source give for O=C(c1cc(F)ccn1)[C@]12Cc3cnn(-c4ccc(F)cc4)c3C=C1CC[C@H](N(C1CC1)S(=O)(=O)c1ccc(Cl)nc1)C2 [Example 320, 6-chloro-N-cyclopropyl-N-((4aS,6S)-1-(4-fluorophenyl)-4a-(4-fluoropicolinoyl)-4,4a,5,6,7,8-hexahydro-1H-benzo[f]indazol-6-yl)pyridine-3-sulfonamide] here?
Answer: ≤ 100 nM

Question: And the inhibition at 5 min (CYP2C8)?
Answer: 25 to 50%

Question: What does the source list for O=C(c1cc(Cl)ccn1)[C@]12Cc3cnn(-c4ccc(F)cc4)c3C=C1CC[C@H](N(C1CC1)S(=O)(=O)c1ccc(Cl)nc1)C2 [Example 321, 6-chloro-N-((4aS,6S)-4a-(4-chloropicolinoyl)-1-(4-fluorophenyl)-4,4a,5,6,7,8-hexahydro-1H-benzo[f]indazol-6-yl)-N-cyclopropylpyridine-3-sulfonamide]?
Answer: IC50 (GR): ≤ 100 nM; inhibition at 5 min (CYP2C8): ≤ 25%

Question: Which IC50 (GR) does the source give for CC(C)N([C@H]1CCC2=Cc3c(cnn3-c3ccc(F)cc3)C[C@]2(C(=O)c2cc(F)ccn2)C1)S(=O)(=O)c1ccc(Cl)nc1 [Example 322, 6-chloro-N-((4aS,6S)-1-(4-fluorophenyl)-4a-(4-fluoropicolinoyl)-4,4a,5,6,7,8-hexahydro-1H-benzo[f]indazol-6-yl)-N-isopropylpyridine-3-sulfonamide] here?
Answer: ≤ 100 nM

Question: And the inhibition at 5 min (CYP2C8)?
Answer: 25 to 50%

Question: What does the source list for Cn1cnc(S(=O)(=O)N(C2CC(F)(F)C2)[C@H]2CCC3=Cc4c(cnn4-c4ccc(F)cc4)C[C@]3(C(=O)c3ncc(C(F)(F)F)s3)C2)n1 [Example 324, N-(3,3-difluorocyclobutyl)-N-((4aS,6S)-1-(4-fluorophenyl)-4a-(5-(trifluoromethyl)thiazole-2-carbonyl)-4,4a,5,6,7,8-hexahydro-1H-benzo[f]indazol-6-yl)-1-methyl-1H-1,2,4-triazole-3-sulfonamide]?
Answer: IC50 (GR): ≤ 100 nM; inhibition at 5 min (CYP2C8): 25 to 50%
